Patent US7713969B2, “Compositions and methods for treatment of cancer” (ArQule, Inc., priority 2005, dated 2010)

Columns and labels:
[1] = tested on: Recombinant Protein Kinase C; assay: Protein Kinase C kinase reaction, Histone H1, autoradiography (Example 79); format: biochemical; details: 0.05, 0.5, or 10 μM, 15 minutes at room temperature
Method: Recombinant Protein Kinase C (Calbiochem) (100 ng) was incubated with (±)-cis-3-(5,6-dihydro-4H-pyrrolo[3,2,1-ij]quinolin-1yl)-4(1H-indol-3-yl)pyrrolidine-2,5-dione or (±)-trans-3-(5,6-dihydro-4H-pyrrolo[3,2,1-ij]quinolin-1-yl)-4(1H-indol-3-yl)pyrrolidine-2,5-dione at 0.05, 0.5, or 10 μM for 15 minutes at room temperature. Subsequently, a radioactive labeling mix in kinase buffer (20 mM Tris-HCl pH 7.5, 10 mM MgCl2) containing 20 μM ATP, 0.2 μCi/μl γ^32P-ATP, 0.2 μg/μl Histone H1 (Upstate) was added to each sample. The kinase reaction was carried out for 5 minutes at room temperature. Reaction products were analyzed by 12% SDS-PAGE and autoradiography.

[2] = tested on: MDA-MB-231 human breast cancer xenograft; assay: MDA-MB-231 xenograft, intraperitoneal 160 mg/kg (Example 81); format: in vivo, mice; details: 160 mg/kg intraperitoneally, q3d×10, lipiodol vehicle
Method: Athymic female nude mice (CRL:NU/NU-nuBR) were injected subcutaneously in the flank with MDA-MB-231 human breast cancer cells (8×10^6 cells/mouse). Prior to injection, MDA-MB-231 cells were cultured in DMEM (Invitrogen #11965-092) supplemented with 10% (v/v) heat inactivated fetal bovine serum (FBS), 1% Hepes buffer solution (Invitrogen #15630-080) and 1% Penicillin/Streptomycin (Invitrogen #15140-122) at 37° C. in 5% CO2. Tumors were allowed to grow to approximately 50 mm^3 in size. Animals were randomized into three groups of five animals per group. At day ten post injection, mice with established tumors were treated intraperitoneally with (±)-cis-3-(5,6-dihydro-4H-pyrrolo[3,2,1-ij]quinolin-1yl)-4(1H-indol-3-yl) pyrrolidine-2,5-dione (160 mg/kg), (±)-trans-3-(5,6-dihydro-4H-pyrrolo[3,2,1-ij]quinolin-1-yl)-4(1H-indol-3-yl)pyrrolidine-2,5-dione (160 mg/kg) administered in iodinated poppy seed oil (lipiodol) as the vehicle at 10 mg/ml, or vehicle control. Drug or vehicle was administered every three days for a total of ten doses (q3d×10). Tumor size was evaluated periodically during the study. For each subject, tumor volume was calculated using the formula (L×W^2)/2 where L and W were the length and width of the tumor, respectively. The arithmetic mean tumor volume was calculated for each treatment group+/−standard error of the mean (SEM). […]

[3] = tested on: MDA-MB-231 human breast cancer xenograft; assay: MDA-MB-231 xenograft, intraperitoneal 80 mg/kg (Example 82); format: in vivo, mice; details: 80 mg/kg intraperitoneally, 5 days on/2 off, four cycles, DMA/PEG 400
Method: Athymic female nude mice (CRL:NU/NU-nuBR) were injected subcutaneously in the flank with MDA-MB-231 human breast cancer cells (8×10^6 cells/mouse). Prior to injection, MDA-MB-231 cells were cultured in DMEM (Invitrogen #11965-092) supplemented with 10% (v/v) heat inactivated fetal bovine serum (FBS), 1% Hepes buffer solution (Invitrogen #15630-080) and 1% Penicillin/Streptomycin (Invitrogen #15140-122) at 37° C. in 5% CO2. Tumors were allowed to grow to approximately 50 mm^3 in size. Animals were randomized into three groups of eight animals per group. At day four post injection, mice with established tumors were treated intraperitoneally with (±)-Cis-3-(5,6-dihydro-4H-pyrrolo[3,2,1-ij]quinolin-1yl)-4(1H-indol-3-yl)pyrrolidine-2,5-dione (80 mg/kg), (±)-Trans-3-(5,6-dihydro-4H-pyrrolo[3,2,1-ij]quinolin-1-yl)-4(1H-indol-3-yl)pyrrolidine-2,5-dione (80 mg/kg) administered in DMA/PEG 400 (1:4 v/v) as the vehicle at 50 mg/ml, or vehicle control intraperitoneally. […] Tumor size was evaluated periodically during the study. For each subject, tumor volume was calculated using the formula (L×W^2)/2 where L and W were the length and width of the tumor, respectively. The arithmetic mean tumor volume was calculated for each treatment group+/−standard error of the mean (SEM). […]

[4] = tested on: MDA-MB-231 cells or Paca-2 cells; assay: Cell survival in six-well plates, Wright-Giemsa stain (Example 77); format: cell-based; details: Homo sapiens; 0.1-2 μM, cultures observed 10-15 days; cell line of the IC50 not stated
Method: Exponentially growing MDA-MB-231 cells or Paca-2 cells were seeded at 1,000 cells per well in six-well plates and allowed to attach for 24 hours. MDA-MB-231 and Paca-2 cells were cultured in DMEM supplemented with 10% (v/v) fetal calf serum (FCS) and 5 ml Penicillin/Streptomycin at 37° C. in 5% CO2. MDA-MB-231 and Paca-2 were established estrogen receptor negative human breast cancer and pancreatic carcinoma cell lines, respectively. (±)-cis-3-(5,6-dihydro-4H-pyrrolo[3,2,1-ij]quinolin-1yl)-4(1H-indol-3-yl)pyrrolidine-2,5-dione or (±)-trans-3-(5,6-dihydro-4H-pyrrolo[3,2,1-ij]quinolin-1-yl)-4(1H-indol-3-yl)pyrrolidine-2,5-dione were each dissolved at a concentration of 10 mM in DMSO, and separately added to cells at a concentration of 0.1, 0.25, 0.5, 1 or 2 μM. Control plates received DMSO alone, at the same percentage of total culture volume as that administered in conjunction with the highest concentration of drug. Cell cultures were observed daily for 10-15 days, then fixed and stained with modified Wright-Giemsa stain (Sigma). Treatment with (±)-cis-3-(5,6-dihydro-4H-pyrrolo [3,2,1-ij]quinolin-1yl)-4(1H-indol-3-yl)pyrrolidine-2,5-dione or (±)-trans-3-(5,6-dihydro-4H-pyrrolo[3,2,1-ij]quinolin-1-yl)-4(1H-indol-3-yl)pyrrolidine-2,5-dione results in cell death of MDA-MB-231 cells or Paca-2 cells. See, e.g., FIG. 2.

HT29 = assay: Cell viability MTS assay; format: cell-based, human; details: Homo sapiens, HT-29, 72 hours with compound
In short: (§1)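 72 h compound exposure, 0.33% DMSO final; MTS 2 gm/L + PMS 7.67 mg/L final, 4 h; SDS 1.4% final; A490. IC50 vs DMSO-only wells, non-linear regression.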

MDA-MB-231 = assay: Cell viability MTS assay; format: cell-based, human; details: Homo sapiens, MDA-MB-231, 72 hours with compound
In short: as §1

## O=C1NC(=O)[C@@H](c2cn3c4c(cccc24)CCC3)[C@H]1c1c[nH]c2ccccc12 (racemic) [(±)-Cis-3-(5,6-dihydro-4H-pyrrolo[3,2,1-ij]quinolin-1-yl)-4(1H-indol-3-yl)pyrrolidine-2,5-dione]
[1]
  Protein Kinase C kinase activity in comparison to carrier alone: did not reduce kinase activity
[2]
  reduction of normalized mean tumor volume compared to vehicle treated control: 80.5%
[3]
  reduction of mean tumor volume compared to vehicle treated control: 73.4%
[4]
  IC50: 500 nM
HT29
  IC50: 2890 nM
MDA-MB-231
  IC50: 4040 nM
